Reference: the kinase profiling compilation of Christmann-Franck et al. (2016)

Assays:
Assay in all cases: KINOMEscan competition binding
Details in all cases: compound 10.0 µM
CDC42BPG (human) = CDC42BPG (human) (UniProt Q6DT37)
MLTK (human) = MLTK (human) (UniProt Q9NYL2)
DAPK1 (human) = DAPK1 (human) (UniProt P53355)
MAP3K1 (human) = MAP3K1 (human) (UniProt Q13233)
NEK7 (human) = NEK7 (human) (UniProt Q8TDX7)
RIPK1 (human) = RIPK1 (human) (UniProt Q13546)
FGFR4 (human) = FGFR4 (human) (UniProt P22455)
CLK3 (human) = CLK3 (human) (UniProt P49761)
PRKX (human) = PRKX (human) (UniProt P51817)
PTK6 (human) = PTK6 (human) (UniProt Q13882)
[1] = tested on: RET (human), P07949 [V804L]
BLK (human) = BLK (human) (UniProt P51451)
FLT1 (human) = FLT1 (human) (UniProt P17948)
[2] = tested on: EGFR (human), P00533 [L858R]
MST4 (human) = MST4 (human) (UniProt Q9P289)
[3] = tested on: FLT3 (human), P36888 [N841I]
CSNK2A1 (human) = CSNK2A1 (human) (UniProt P68400)
NEK1 (human) = NEK1 (human) (UniProt Q96PY6)
HIPK1 (human) = HIPK1 (human) (UniProt Q86Z02)
CAMKK2 (human) = CAMKK2 (human) (UniProt Q96RR4)
[4] = tested on: EGFR (human), P00533 [T790M/L858R]
PRKCH (human) = PRKCH (human) (UniProt P24723)
MATK (human) = MATK (human) (UniProt P42679)
PIP4K2C (human) = PIP4K2C (human) (UniProt Q8TBX8)
TNK2 (human) = TNK2 (human) (UniProt Q07912)
STK17B (human) = STK17B (human) (UniProt O94768)
NLK (human) = NLK (human) (UniProt Q9UBE8)
MERTK (human) = MERTK (human) (UniProt Q12866)
RPS6KA2 KD1 (human) = RPS6KA2 KD1 (human) (UniProt Q15349)
FGFR2 (human) = FGFR2 (human) (UniProt P21802)
MAP2K2 (human) = MAP2K2 (human) (UniProt P36507)
EPHA7 (human) = EPHA7 (human) (UniProt Q15375)
[5] = tested on: FLT3 (human), P36888 [ITD]
PAK3 (human) = PAK3 (human) (UniProt O75914)
RPS6KA2 KD2 (human) = RPS6KA2 KD2 (human) (UniProt Q15349)
MAP3K2 (human) = MAP3K2 (human) (UniProt Q9Y2U5)
[6] = tested on: KIT (human), P10721 [V559D]
LIMK1 (human) = LIMK1 (human) (UniProt P53667)
CSNK1G3 (human) = CSNK1G3 (human) (UniProt Q9Y6M4)
[7] = tested on: FGFR3 (human), P22607 [G697C]
CHEK1 (human) = CHEK1 (human) (UniProt O14757)

Sequence of MST4 (human) (Q9P289 whole entry, looked up): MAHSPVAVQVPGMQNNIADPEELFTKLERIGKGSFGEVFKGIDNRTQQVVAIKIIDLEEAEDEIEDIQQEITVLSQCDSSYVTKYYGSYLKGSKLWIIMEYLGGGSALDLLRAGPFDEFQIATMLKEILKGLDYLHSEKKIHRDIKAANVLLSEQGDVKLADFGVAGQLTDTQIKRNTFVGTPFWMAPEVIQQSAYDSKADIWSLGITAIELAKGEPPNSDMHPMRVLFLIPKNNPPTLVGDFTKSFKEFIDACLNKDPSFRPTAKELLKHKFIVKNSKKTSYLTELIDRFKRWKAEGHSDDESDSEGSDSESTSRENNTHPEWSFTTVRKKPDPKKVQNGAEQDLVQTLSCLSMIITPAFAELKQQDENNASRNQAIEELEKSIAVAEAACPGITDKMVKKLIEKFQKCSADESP
Sequence of STK17B (human) (O94768 whole entry, looked up): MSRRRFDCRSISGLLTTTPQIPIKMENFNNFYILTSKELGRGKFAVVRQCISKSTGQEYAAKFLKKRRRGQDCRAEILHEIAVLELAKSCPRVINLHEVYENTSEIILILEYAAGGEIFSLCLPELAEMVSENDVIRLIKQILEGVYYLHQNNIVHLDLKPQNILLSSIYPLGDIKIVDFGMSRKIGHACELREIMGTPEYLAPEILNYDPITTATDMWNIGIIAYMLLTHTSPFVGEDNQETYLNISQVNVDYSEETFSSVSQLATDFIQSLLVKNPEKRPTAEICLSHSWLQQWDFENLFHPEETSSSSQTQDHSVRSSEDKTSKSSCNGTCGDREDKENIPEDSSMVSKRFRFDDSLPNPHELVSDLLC
Sequence of NLK (human) (Q9UBE8 whole entry, looked up): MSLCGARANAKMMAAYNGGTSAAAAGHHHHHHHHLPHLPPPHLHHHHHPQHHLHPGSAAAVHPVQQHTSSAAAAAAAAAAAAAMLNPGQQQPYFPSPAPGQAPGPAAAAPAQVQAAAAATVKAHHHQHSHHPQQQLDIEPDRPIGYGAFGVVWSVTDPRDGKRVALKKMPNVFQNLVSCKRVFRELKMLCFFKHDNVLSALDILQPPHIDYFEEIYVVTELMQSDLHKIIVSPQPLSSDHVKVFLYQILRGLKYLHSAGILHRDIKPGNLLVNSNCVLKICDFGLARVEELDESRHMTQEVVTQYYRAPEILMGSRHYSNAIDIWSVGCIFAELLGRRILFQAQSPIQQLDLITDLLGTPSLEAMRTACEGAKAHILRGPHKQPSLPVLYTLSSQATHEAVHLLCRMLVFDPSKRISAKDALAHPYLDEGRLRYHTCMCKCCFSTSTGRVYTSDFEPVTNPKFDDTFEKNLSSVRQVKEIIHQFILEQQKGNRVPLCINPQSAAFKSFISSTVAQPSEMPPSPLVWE
Sequence of FGFR4 (human) (P22455 whole entry, looked up): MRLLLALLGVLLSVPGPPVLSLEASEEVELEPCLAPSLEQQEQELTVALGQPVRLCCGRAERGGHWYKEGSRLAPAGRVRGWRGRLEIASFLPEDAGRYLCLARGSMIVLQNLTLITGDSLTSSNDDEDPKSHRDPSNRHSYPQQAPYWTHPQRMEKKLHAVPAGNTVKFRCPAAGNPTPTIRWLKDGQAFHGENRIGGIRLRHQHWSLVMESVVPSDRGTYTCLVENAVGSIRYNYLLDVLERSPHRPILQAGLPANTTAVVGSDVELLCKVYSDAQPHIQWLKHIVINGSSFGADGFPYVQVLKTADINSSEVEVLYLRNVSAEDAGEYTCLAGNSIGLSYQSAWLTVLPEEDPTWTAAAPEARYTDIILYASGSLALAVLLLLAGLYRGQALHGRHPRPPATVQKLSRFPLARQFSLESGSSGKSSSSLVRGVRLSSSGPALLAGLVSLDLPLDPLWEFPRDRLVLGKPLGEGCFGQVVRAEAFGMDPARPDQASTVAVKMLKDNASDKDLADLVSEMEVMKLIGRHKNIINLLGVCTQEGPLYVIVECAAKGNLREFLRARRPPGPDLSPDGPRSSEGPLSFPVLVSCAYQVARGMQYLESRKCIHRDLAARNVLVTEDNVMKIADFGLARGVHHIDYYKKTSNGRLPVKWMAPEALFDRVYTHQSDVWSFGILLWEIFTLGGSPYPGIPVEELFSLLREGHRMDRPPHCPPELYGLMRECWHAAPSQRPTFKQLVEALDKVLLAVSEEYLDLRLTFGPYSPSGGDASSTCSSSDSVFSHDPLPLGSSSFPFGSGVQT
Sequence of RIPK1 (human) (Q13546 whole entry, looked up): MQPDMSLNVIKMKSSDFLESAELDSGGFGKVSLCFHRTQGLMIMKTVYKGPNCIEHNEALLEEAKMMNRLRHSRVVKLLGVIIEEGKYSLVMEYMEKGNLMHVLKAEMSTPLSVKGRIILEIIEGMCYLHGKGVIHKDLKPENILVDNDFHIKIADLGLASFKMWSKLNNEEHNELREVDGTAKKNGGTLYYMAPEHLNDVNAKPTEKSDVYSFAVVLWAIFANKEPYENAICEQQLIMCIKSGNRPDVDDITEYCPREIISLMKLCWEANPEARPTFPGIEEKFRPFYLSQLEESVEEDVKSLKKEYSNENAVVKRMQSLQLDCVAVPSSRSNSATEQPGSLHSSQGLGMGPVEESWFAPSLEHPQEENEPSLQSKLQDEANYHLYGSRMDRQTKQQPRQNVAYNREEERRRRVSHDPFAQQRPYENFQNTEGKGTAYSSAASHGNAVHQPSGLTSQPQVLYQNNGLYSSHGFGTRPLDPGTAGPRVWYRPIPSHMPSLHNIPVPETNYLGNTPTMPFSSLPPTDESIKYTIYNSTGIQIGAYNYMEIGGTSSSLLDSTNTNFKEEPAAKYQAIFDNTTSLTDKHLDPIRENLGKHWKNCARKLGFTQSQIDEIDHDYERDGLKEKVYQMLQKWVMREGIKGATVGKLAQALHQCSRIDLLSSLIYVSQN
Sequence of RET (human), P07949 [V804L] (P07949 whole entry V804L, looked up): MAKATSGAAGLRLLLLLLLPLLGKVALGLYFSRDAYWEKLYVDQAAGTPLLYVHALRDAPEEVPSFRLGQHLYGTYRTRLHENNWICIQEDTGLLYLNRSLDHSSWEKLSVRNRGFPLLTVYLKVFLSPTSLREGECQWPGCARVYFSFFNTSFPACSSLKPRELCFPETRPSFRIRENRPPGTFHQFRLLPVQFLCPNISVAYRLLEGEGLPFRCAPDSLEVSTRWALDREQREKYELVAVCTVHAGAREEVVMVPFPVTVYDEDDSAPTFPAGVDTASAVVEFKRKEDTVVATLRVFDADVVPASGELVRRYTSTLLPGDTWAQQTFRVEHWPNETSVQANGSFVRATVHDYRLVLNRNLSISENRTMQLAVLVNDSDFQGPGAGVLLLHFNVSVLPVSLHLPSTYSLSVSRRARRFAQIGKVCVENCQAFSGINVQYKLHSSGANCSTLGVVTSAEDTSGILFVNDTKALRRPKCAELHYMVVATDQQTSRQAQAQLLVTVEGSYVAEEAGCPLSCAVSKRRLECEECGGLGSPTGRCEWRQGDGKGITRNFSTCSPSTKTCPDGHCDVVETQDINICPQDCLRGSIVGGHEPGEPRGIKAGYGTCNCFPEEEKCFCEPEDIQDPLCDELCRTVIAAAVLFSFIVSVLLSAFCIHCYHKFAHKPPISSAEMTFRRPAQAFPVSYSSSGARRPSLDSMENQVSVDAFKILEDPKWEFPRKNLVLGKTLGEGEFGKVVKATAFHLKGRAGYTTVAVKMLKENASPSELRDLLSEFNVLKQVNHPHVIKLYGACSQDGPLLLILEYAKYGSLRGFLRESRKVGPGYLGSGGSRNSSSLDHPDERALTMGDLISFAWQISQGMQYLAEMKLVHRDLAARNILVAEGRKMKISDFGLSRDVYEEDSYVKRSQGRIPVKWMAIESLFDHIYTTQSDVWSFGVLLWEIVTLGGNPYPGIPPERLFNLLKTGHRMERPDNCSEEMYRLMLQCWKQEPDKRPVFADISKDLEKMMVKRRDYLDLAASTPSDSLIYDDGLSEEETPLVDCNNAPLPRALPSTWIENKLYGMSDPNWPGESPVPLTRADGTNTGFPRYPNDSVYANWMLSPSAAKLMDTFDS
Sequence of CAMKK2 (human) (Q96RR4 whole entry, looked up): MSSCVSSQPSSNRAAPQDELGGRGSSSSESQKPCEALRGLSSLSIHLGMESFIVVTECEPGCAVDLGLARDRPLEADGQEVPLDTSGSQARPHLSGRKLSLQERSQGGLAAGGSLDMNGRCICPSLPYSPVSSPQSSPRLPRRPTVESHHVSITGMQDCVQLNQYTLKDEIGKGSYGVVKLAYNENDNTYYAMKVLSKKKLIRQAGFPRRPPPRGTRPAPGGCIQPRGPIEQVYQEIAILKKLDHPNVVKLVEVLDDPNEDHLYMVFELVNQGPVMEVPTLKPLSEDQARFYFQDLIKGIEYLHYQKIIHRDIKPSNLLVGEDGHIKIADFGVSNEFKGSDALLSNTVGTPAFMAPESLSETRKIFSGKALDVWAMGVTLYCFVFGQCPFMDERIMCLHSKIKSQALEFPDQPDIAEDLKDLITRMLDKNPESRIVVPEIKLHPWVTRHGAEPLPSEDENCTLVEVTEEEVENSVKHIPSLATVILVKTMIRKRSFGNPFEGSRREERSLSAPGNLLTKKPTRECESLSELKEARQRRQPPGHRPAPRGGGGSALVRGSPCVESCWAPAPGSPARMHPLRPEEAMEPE
Sequence of PAK3 (human) (O75914 whole entry, looked up): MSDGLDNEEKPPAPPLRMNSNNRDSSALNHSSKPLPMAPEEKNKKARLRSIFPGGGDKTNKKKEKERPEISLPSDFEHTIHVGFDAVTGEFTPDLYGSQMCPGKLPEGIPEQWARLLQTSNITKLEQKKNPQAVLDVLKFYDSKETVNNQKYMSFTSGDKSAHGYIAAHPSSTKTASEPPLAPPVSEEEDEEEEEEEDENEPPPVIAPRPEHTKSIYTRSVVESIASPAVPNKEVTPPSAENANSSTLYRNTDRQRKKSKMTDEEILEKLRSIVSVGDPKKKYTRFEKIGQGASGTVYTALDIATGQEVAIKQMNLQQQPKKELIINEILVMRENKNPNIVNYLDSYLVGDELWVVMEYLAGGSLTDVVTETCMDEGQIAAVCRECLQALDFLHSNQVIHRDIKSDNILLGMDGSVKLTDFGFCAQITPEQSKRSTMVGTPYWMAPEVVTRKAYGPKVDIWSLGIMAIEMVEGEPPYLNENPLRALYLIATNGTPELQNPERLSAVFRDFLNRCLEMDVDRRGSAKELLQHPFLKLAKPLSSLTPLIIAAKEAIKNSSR

## CCC(=O)N1CCN(c2ccc(-n3c(=O)ccc4cnc5ccc(-c6cnc7ccccc7c6)cc5c43)cc2C(F)(F)F)CC1
CDC42BPG (human)
  kinase still bound, per cent of control: 1.6%
MLTK (human)
  kinase still bound, per cent of control: 22%
DAPK1 (human)
  kinase still bound, per cent of control: 96%
MAP3K1 (human)
  kinase still bound, per cent of control: 92%
NEK7 (human)
  kinase still bound, per cent of control: 90%
RIPK1 (human)
  kinase still bound, per cent of control: 1.9%
FGFR4 (human)
  kinase still bound, per cent of control: 21%
CLK3 (human)
  kinase still bound, per cent of control: 43%
PRKX (human)
  kinase still bound, per cent of control: 83%
PTK6 (human)
  kinase still bound, per cent of control: 51%
[1]
  kinase still bound, per cent of control: 66%
BLK (human)
  kinase still bound, per cent of control: 75%
FLT1 (human)
  kinase still bound, per cent of control: 79%
[2]
  kinase still bound, per cent of control: 100%
MST4 (human)
  kinase still bound, per cent of control: 89%
[3]
  kinase still bound, per cent of control: 8.8%
CSNK2A1 (human)
  kinase still bound, per cent of control: 94%
NEK1 (human)
  kinase still bound, per cent of control: 89%
HIPK1 (human)
  kinase still bound, per cent of control: 63%
CAMKK2 (human)
  kinase still bound, per cent of control: 85%
[4]
  kinase still bound, per cent of control: 100%
PRKCH (human)
  kinase still bound, per cent of control: 92%
MATK (human)
  kinase still bound, per cent of control: 97%
PIP4K2C (human)
  kinase still bound, per cent of control: 58%
TNK2 (human)
  kinase still bound, per cent of control: 51%
STK17B (human)
  kinase still bound, per cent of control: 67%
NLK (human)
  kinase still bound, per cent of control: 25%
MERTK (human)
  kinase still bound, per cent of control: 53%
RPS6KA2 KD1 (human)
  kinase still bound, per cent of control: 100%
FGFR2 (human)
  kinase still bound, per cent of control: 55%
MAP2K2 (human)
  kinase still bound, per cent of control: 100%
EPHA7 (human)
  kinase still bound, per cent of control: 98%
[5]
  kinase still bound, per cent of control: 29%
PAK3 (human)
  kinase still bound, per cent of control: 100%
RPS6KA2 KD2 (human)
  kinase still bound, per cent of control: 85%
MAP3K2 (human)
  kinase still bound, per cent of control: 62%
[6]
  kinase still bound, per cent of control: 50%
LIMK1 (human)
  kinase still bound, per cent of control: 15%
CSNK1G3 (human)
  kinase still bound, per cent of control: 100%

## COC(=O)Nc1ccc(-c2nc(N3CCOCC3)c3cnn(C4CCN(C(=O)OC)CC4)c3n2)cc1
CDC42BPG (human)
  kinase still bound, per cent of control: 100%
MLTK (human)
  kinase still bound, per cent of control: 97%
DAPK1 (human)
  kinase still bound, per cent of control: 100%
MAP3K1 (human)
  kinase still bound, per cent of control: 94%
NEK7 (human)
  kinase still bound, per cent of control: 77%
RIPK1 (human)
  kinase still bound, per cent of control: 100%
FGFR4 (human)
  kinase still bound, per cent of control: 100%
CLK3 (human)
  kinase still bound, per cent of control: 100%
PRKX (human)
  kinase still bound, per cent of control: 100%
PTK6 (human)
  kinase still bound, per cent of control: 88%
[1]
  kinase still bound, per cent of control: 84%
BLK (human)
  kinase still bound, per cent of control: 100%
FLT1 (human)
  kinase still bound, per cent of control: 100%
[2]
  kinase still bound, per cent of control: 100%
[7]
  kinase still bound, per cent of control: 100%
MST4 (human)
  kinase still bound, per cent of control: 80%
[3]
  kinase still bound, per cent of control: 78%
CSNK2A1 (human)
  kinase still bound, per cent of control: 62%
NEK1 (human)
  kinase still bound, per cent of control: 77%
HIPK1 (human)
  kinase still bound, per cent of control: 57%
CAMKK2 (human)
  kinase still bound, per cent of control: 84%
[4]
  kinase still bound, per cent of control: 100%
PRKCH (human)
  kinase still bound, per cent of control: 92%
MATK (human)
  kinase still bound, per cent of control: 100%
PIP4K2C (human)
  kinase still bound, per cent of control: 12%
TNK2 (human)
  kinase still bound, per cent of control: 100%
STK17B (human)
  kinase still bound, per cent of control: 75%
NLK (human)
  kinase still bound, per cent of control: 99%
MERTK (human)
  kinase still bound, per cent of control: 100%
RPS6KA2 KD1 (human)
  kinase still bound, per cent of control: 100%
FGFR2 (human)
  kinase still bound, per cent of control: 100%
MAP2K2 (human)
  kinase still bound, per cent of control: 100%
EPHA7 (human)
  kinase still bound, per cent of control: 94%
[5]
  kinase still bound, per cent of control: 100%
PAK3 (human)
  kinase still bound, per cent of control: 83%
CHEK1 (human)
  kinase still bound, per cent of control: 96%
RPS6KA2 KD2 (human)
  kinase still bound, per cent of control: 100%
MAP3K2 (human)
  kinase still bound, per cent of control: 89%
[6]
  kinase still bound, per cent of control: 96%
LIMK1 (human)
  kinase still bound, per cent of control: 100%
CSNK1G3 (human)
  kinase still bound, per cent of control: 100%

## CC(C)n1nc(-c2cc3cc(O)ccc3[nH]2)c2c(N)ncnc21
CDC42BPG (human)
  kinase still bound, per cent of control: 86%
MLTK (human)
  kinase still bound, per cent of control: 29%
DAPK1 (human)
  kinase still bound, per cent of control: 3%
MAP3K1 (human)
  kinase still bound, per cent of control: 45%
NEK7 (human)
  kinase still bound, per cent of control: 100%
RIPK1 (human)
  kinase still bound, per cent of control: 100%
FGFR4 (human)
  kinase still bound, per cent of control: 12%
CLK3 (human)
  kinase still bound, per cent of control: 66%
PRKX (human)
  kinase still bound, per cent of control: 100%
PTK6 (human)
  kinase still bound, per cent of control: 32%
[1]
  kinase still bound, per cent of control: 12%
BLK (human)
  kinase still bound, per cent of control: 1.2%
FLT1 (human)
  kinase still bound, per cent of control: 25%
[7]
  kinase still bound, per cent of control: 11%
MST4 (human)
  kinase still bound, per cent of control: 31%
[3]
  kinase still bound, per cent of control: 5%
CSNK2A1 (human)
  kinase still bound, per cent of control: 16%
NEK1 (human)
  kinase still bound, per cent of control: 61%
HIPK1 (human)
  kinase still bound, per cent of control: 1.9%
CAMKK2 (human)
  kinase still bound, per cent of control: 30%
PRKCH (human)
  kinase still bound, per cent of control: 10%
MATK (human)
  kinase still bound, per cent of control: 60%
PIP4K2C (human)
  kinase still bound, per cent of control: 9.9%
TNK2 (human)
  kinase still bound, per cent of control: 48%
STK17B (human)
  kinase still bound, per cent of control: 40%
NLK (human)
  kinase still bound, per cent of control: 10%
MERTK (human)
  kinase still bound, per cent of control: 61%
RPS6KA2 KD1 (human)
  kinase still bound, per cent of control: 48%
FGFR2 (human)
  kinase still bound, per cent of control: 5.8%
MAP2K2 (human)
  kinase still bound, per cent of control: 0.4%
EPHA7 (human)
  kinase still bound, per cent of control: 61%
PAK3 (human)
  kinase still bound, per cent of control: 59%
CHEK1 (human)
  kinase still bound, per cent of control: 66%
RPS6KA2 KD2 (human)
  kinase still bound, per cent of control: 62%
MAP3K2 (human)
  kinase still bound, per cent of control: 4.8%
[6]
  kinase still bound, per cent of control: 0.3%
LIMK1 (human)
  kinase still bound, per cent of control: 73%
